These results are taken from patent US5089623A, “Certain imidate insecticides” (Imperial Chemical Industries Plc, priority 1990, dated 1992).

Type in all cases: in vivo
The test system of experiment [1] is Housefly [Musca domestica]. The experiment is described as follows: Housefly insecticidal test (HF). The conditions noted are these: per 25 female houseflies, 48 hours.
In experiment [2] the test system is Tobacco Budworm [Heliothis virescens (Fabricius)] eggs. The experiment is described as follows: Tobacco budworm egg test (TBW-E). The note with it: percent in solution.
Experiment [3] deals with Cabbage Looper [Trichoplusia ni (Hubner)]. The experiment is described as follows: Cabbage looper test (CL). The conditions noted are these: second-instar larvae, 3-5 days, percent in solution.
Experiment [4] deals with Aster Leafhopper [Macrosteles fascifrens (Stal)]. Description: Aster leafhopper test (LH). The conditions noted are these: adults/nymphs, 48 hours, percent in solution.
Experiment [5] concerns Maize weevil [Sitophilus Zeamais (Motschulsky)]. The experiment is described as follows: Maize weevil test (MW). The conditions noted are these: adult weevils, treated corn seeds, 48 hours, percent in solution. In outline:
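Adult weevils (10) were placed with four corn seeds that had been dipped 2-3 s in compound dissolved in 50:50 acetone:water, then dried, and held at about 25° C. Mortality was scored at 48 h. LC50 was taken from dosage-mortality curves and expressed as percent compound in solution, from a 0.01% top concentration.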

For `CC(C)C(=Nc1cccc(C(F)(F)F)c1)OCc1cccc(Nc2ccc(F)cc2)c1` [Compound 513], the “LC50 HF” value in experiment [1] worked out at 81 µg. In experiment [2], the “LC50 TBW E” value was > 0.1%. Also, in experiment [3], the “LC50 CL” value was determined as 0.007%. Moreover, the “LC50 LH” value in experiment [4] is > 0.05%. Further, the “LC50 MW” value in experiment [5] is > 0.01%.

In the case of `CC(C)C(=Nc1ccc(Cl)c(Cl)c1)OCc1cccc(Nc2ccc(F)cc2)c1` [Compound 514], the “LC50 HF” value in experiment [1] is > 100 µg. In experiment [2], the “LC50 TBW E” value is listed as > 0.1%. The “LC50 CL” value in experiment [3] turned out to be 0.008%. Moreover, the “LC50 LH” value in experiment [4] is given as > 0.05%. Moreover, in experiment [5], the “LC50 MW” value is recorded as > 0.01%.

On to `CC(C)C(=Nc1ccc2c(c1)OCO2)OCc1cc(Oc2ccc(F)cc2)ccn1` [Compound 515], for which the “LC50 HF” value in experiment [1] is 28 µg. Further, the “LC50 TBW E” value in experiment [2] was > 0.1%. In addition, the “LC50 CL” value in experiment [3] was 0.0015%. The “LC50 LH” value in experiment [4] was > 0.05%. The “LC50 MW” value in experiment [5] is > 0.01%.

As for `CC(C)C(=Nc1ccc(F)c(Cl)c1)OCc1cc(Oc2ccc(Cl)cc2)ccn1` [Compound 516], the “LC50 HF” value in experiment [1] was > 100 µg. In addition, the “LC50 TBW E” value in experiment [2] was > 0.1%. Moreover, in experiment [3], the “LC50 CL” value was found to be 0.008%. For the same compound, the “LC50 LH” value in experiment [4] is listed as > 0.05%. For the same compound, the “LC50 MW” value in experiment [5] is > 0.01%.

Turning to `CC(C)C(=Nc1cccc(C(F)(F)F)c1)OCc1ccnc(Oc2ccc(Cl)cc2)c1` [Compound 517], in experiment [1], the “LC50 HF” value was found to be 80 µg. For the same compound, in experiment [2], the “LC50 TBW E” value stood at 0.04%. In addition, the “LC50 CL” value in experiment [3] was determined as 0.0008%. Besides, the “LC50 LH” value in experiment [4] is reported as > 0.05%. In experiment [5], the “LC50 MW” value is listed as > 0.01%.

`CC(C)C(=Nc1cccc(C(F)(F)F)c1)OCc1cccc(Oc2ccc(Cl)cn2)c1` [Compound 518]: in experiment [1], the “LC50 HF” value was > 100 µg. In addition, the “LC50 TBW E” value in experiment [2] is > 0.1%. The “LC50 CL” value in experiment [3] is on record as 0.00075%. In addition, the “LC50 LH” value in experiment [4] was > 0.05%. Also, the “LC50 MW” value in experiment [5] is given as > 0.01%.

Turning to `C#CC(OC(=Nc1cccc(C(F)(F)F)c1)C(C)C)c1cccc(Oc2ccccc2)c1` (centres unmarked) [Compound 519], the “LC50 HF” value in experiment [1] worked out at 60 µg. Besides, the “LC50 TBW E” value in experiment [2] is given as > 0.1%. In experiment [3], the “LC50 CL” value is 0.0037%. Besides, in experiment [4], the “LC50 LH” value is > 0.05%. Further, the “LC50 MW” value in experiment [5] was > 0.01%.

With `COCc1c(F)c(F)c(COC(=Nc2ccc(F)c(Cl)c2F)C(C)C)c(F)c1F` [Compound 522], the “LC50 HF” value in experiment [1] was 17.5 µg. Moreover, the “LC50 TBW E” value in experiment [2] is recorded as > 0.1%. For the same compound, in experiment [3], the “LC50 CL” value is recorded as > 0.1%. Further, in experiment [4], the “LC50 LH” value is 0.05%. In addition, the “LC50 MW” value in experiment [5] is > 0.01%.

In the case of `CCC(=Nc1ccc(F)c(F)c1)OCc1coc(Cc2ccccc2)c1` [Compound 524], the “LC50 HF” value in experiment [1] is 5.2 µg. Moreover, the “LC50 TBW E” value in experiment [2] is recorded as > 0.1%. In experiment [3], the “LC50 CL” value is given as > 0.1%. Further, the “LC50 LH” value in experiment [4] is reported as > 0.05%. The “LC50 MW” value in experiment [5] is reported as > 0.01%.

With `CC(C)(C)C(=Nc1ccc(F)c(F)c1)OCc1coc(Cc2ccccc2)c1` [Compound 525], the “LC50 HF” value in experiment [1] is > 100 µg. Besides, the “LC50 TBW E” value in experiment [2] was > 0.1%. Besides, in experiment [3], the “LC50 CL” value is listed as < 0.1%. In experiment [4], the “LC50 LH” value is reported as > 0.05%. Also, in experiment [5], the “LC50 MW” value is recorded as > 0.01%.

As for `CC(=Nc1ccc(F)c(F)c1)OCc1coc(Cc2ccccc2)c1` [Compound 526], the “LC50 HF” value in experiment [1] is 8.3 µg. Besides, in experiment [2], the “LC50 TBW E” value was > 0.1%. The “LC50 CL” value in experiment [3] was > 0.01%. The “LC50 LH” value in experiment [4] is on record as > 0.05%. The “LC50 MW” value in experiment [5] is > 0.01%.

With `CC(C)C(=Nc1ccc(F)c(Cl)c1)OCc1cccc(Oc2ccc(Cl)cn2)c1` [Compound 527], the “LC50 HF” value in experiment [1] is 47 µg. Further, the “LC50 TBW E” value in experiment [2] stood at 0.035%. Moreover, in experiment [3], the “LC50 CL” value worked out at 0.00065%. Also, the “LC50 LH” value in experiment [4] is listed as > 0.05%. Moreover, the “LC50 MW” value in experiment [5] was > 0.01%.

Take `CC(C)C(=Nc1cccc(C(F)(F)F)c1)OCc1cc(Oc2ccc(F)cc2)ccn1` [Compound 528]: the “LC50 HF” value in experiment [1] was 59.1 µg. For the same compound, the “LC50 TBW E” value in experiment [2] is listed as > 0.1%. Moreover, the “LC50 CL” value in experiment [3] was determined as 0.0075%. For the same compound, the “LC50 LH” value in experiment [4] is given as > 0.05%. For the same compound, in experiment [5], the “LC50 MW” value is > 0.01%.

Consider `CC(C)C(=Nc1ccc(F)c(Cl)c1)OCc1cc(Oc2ccc(F)cc2)ccn1` [Compound 529], for which the “LC50 HF” value in experiment [1] worked out at 27.7 µg. Moreover, the “LC50 TBW E” value in experiment [2] is given as > 0.1%. The “LC50 CL” value in experiment [3] is recorded as > 0.0025%. The “LC50 LH” value in experiment [4] is reported as > 0.05%. Besides, in experiment [5], the “LC50 MW” value is on record as > 0.01%.

Turning to `CC(C)C(=Nc1ccc2c(c1)OCO2)OCc1cccc(Oc2ccc(Cl)cn2)c1` [Compound 532], the “LC50 HF” value in experiment [1] is > 100 µg. For the same compound, in experiment [2], the “LC50 TBW E” value was > 0.1%. Also, the “LC50 CL” value in experiment [3] is given as < 0.1%. In experiment [4], the “LC50 LH” value is recorded as > 0.05%. Moreover, the “LC50 MW” value in experiment [5] is on record as > 0.01%.

Turning to `C#CC(OC(=Nc1ccc(F)c(Cl)c1)C(C)C)c1cccc(Oc2ccccc2)c1` (centres unmarked) [Compound 533, N-(3-chloro-4-fluorophenyl)-O-[1-(3-phenoxyphenyl)-2-propyn-1-yl]isobutyrimidate], the “LC50 HF” value in experiment [1] was found to be 60 µg. For the same compound, the “LC50 TBW E” value in experiment [2] is given as > 0.1%. The “LC50 CL” value in experiment [3] is reported as > 0.1%. Besides, in experiment [4], the “LC50 LH” value was > 0.05%. Also, the “LC50 MW” value in experiment [5] is > 0.01%.

As for `CC(C)C(=Nc1ccc(F)c(Cl)c1)OCC#CCOc1ccccc1` [Compound 534], the “LC50 HF” value in experiment [1] was > 100 µg. Besides, the “LC50 TBW E” value in experiment [2] is reported as > 0.1%. For the same compound, the “LC50 CL” value in experiment [3] is < 0.1%. In addition, the “LC50 LH” value in experiment [4] is reported as > 0.05%. In experiment [5], the “LC50 MW” value was > 0.01%.

Turning to `Cc1c(COC(=Nc2ccc(C(C)(C)C)cc2)C(C)C)cccc1-c1ccccc1` [Compound 536], the “LC50 HF” value in experiment [1] is > 100 µg. In addition, in experiment [2], the “LC50 TBW E” value is on record as > 0.1%. Moreover, in experiment [3], the “LC50 CL” value is < 0.1%. Also, in experiment [4], the “LC50 LH” value is reported as > 0.05%. The “LC50 MW” value in experiment [5] was > 0.01%.

On to `CC(C)C(=Nc1ccc([N+](=O)[O-])cc1)OCc1coc(Cc2ccccc2)c1` [Compound 539], for which the “LC50 HF” value in experiment [1] is 22 µg. Besides, in experiment [2], the “LC50 TBW E” value is listed as > 0.1%. For the same compound, the “LC50 CL” value in experiment [3] is > 0.1%. Moreover, the “LC50 LH” value in experiment [4] was > 0.05%. Moreover, the “LC50 MW” value in experiment [5] is reported as > 0.01%.

For `CC(C)C(=Nc1ccc2c(c1)OCO2)OCc1ccnc(Oc2ccccc2)c1` [Compound 540], the “LC50 HF” value in experiment [1] was > 100 µg. The “LC50 TBW E” value in experiment [2] was > 0.1%. Also, the “LC50 CL” value in experiment [3] is on record as < 0.1%. The “LC50 LH” value in experiment [4] is > 0.05%. Besides, the “LC50 MW” value in experiment [5] is > 0.01%.

As for `CC(C)C(=Nc1ccc(F)c(Cl)c1)OCc1cccc(Cc2ccccc2)c1` [Compound 541], the “LC50 HF” value in experiment [1] is < 100 µg. In experiment [2], the “LC50 TBW E” value is reported as > 0.1%. The “LC50 CL” value in experiment [3] amounted to 0.001%. Further, in experiment [4], the “LC50 LH” value is > 0.05%. For the same compound, the “LC50 MW” value in experiment [5] was > 0.01%.

Take `CC(C)C(=Nc1ccc(OC(F)(F)F)cc1)OCc1cccc(Cc2ccccc2)c1` [Compound 542]: the “LC50 HF” value in experiment [1] was > 100 µg. Moreover, the “LC50 TBW E” value in experiment [2] was > 0.1%. The “LC50 CL” value in experiment [3] is > 0.01%. Besides, the “LC50 LH” value in experiment [4] is given as > 0.05%. In addition, the “LC50 MW” value in experiment [5] is listed as > 0.01%.
